Experimental data as given in the CheMixHub ionic liquid set.

Experiment: xn = mol fraction of the nth substance listed
Conditions: for electrical conductivity: 101 kPa; for viscosity: 100 kPa

CCCCCCCCCCCCOS(=O)(=O)[O-].[Na+] + O
Conditions | electrical conductivity [S/m] | viscosity [mPa·s]
283.1 K, x1 = 6.483e-05 | 0.01714 | –
283.1 K, x1 = 6.941e-05 | 0.01821 | –
283.1 K, x1 = 7.476e-05 | 0.01971 | –
283.1 K, x1 = 8.126e-05 | 0.02131 | –
283.1 K, x1 = 8.852e-05 | 0.02313 | –
283.1 K, x1 = 9.769e-05 | 0.02537 | –
283.1 K, x1 = 0.0001027 | 0.02665 | –
283.1 K, x1 = 0.0001088 | 0.02815 | –
283.1 K, x1 = 0.0001153 | 0.02986 | –
283.1 K, x1 = 0.0001225 | 0.03168 | –
283.1 K, x1 = 0.000131 | 0.03381 | –
283.1 K, x1 = 0.0001413 | 0.03617 | –
283.1 K, x1 = 0.0001516 | 0.03884 | –
283.1 K, x1 = 0.0001654 | 0.04066 | –
283.1 K, x1 = 0.0001807 | 0.04228 | –
283.1 K, x1 = 0.0001998 | 0.044 | –
283.1 K, x1 = 0.0002228 | 0.04584 | –
283.1 K, x1 = 0.0002339 | 0.0467 | –
283.1 K, x1 = 0.0002461 | 0.04778 | –
283.1 K, x1 = 0.0002595 | 0.04865 | –
283.1 K, x1 = 0.0002745 | 0.04994 | –
283.1 K, x1 = 0.0002921 | 0.05135 | –
288.15 K, x1 = 6.595e-05 | 0.01969 | –
288.15 K, x1 = 7.09e-05 | 0.02119 | –
288.15 K, x1 = 7.663e-05 | 0.02279 | –
288.15 K, x1 = 8.276e-05 | 0.0245 | –
288.15 K, x1 = 9e-05 | 0.02696 | –
288.15 K, x1 = 9.917e-05 | 0.02952 | –
288.15 K, x1 = 0.0001045 | 0.03102 | –
288.15 K, x1 = 0.0001107 | 0.03273 | –
288.15 K, x1 = 0.0001168 | 0.03465 | –
288.15 K, x1 = 0.0001244 | 0.03679 | –
288.15 K, x1 = 0.0001328 | 0.03924 | –
288.15 K, x1 = 0.0001424 | 0.04191 | –
288.15 K, x1 = 0.0001538 | 0.04459 | –
288.15 K, x1 = 0.0001668 | 0.0463 | –
288.15 K, x1 = 0.0001829 | 0.04792 | –
288.15 K, x1 = 0.0002013 | 0.04975 | –
288.15 K, x1 = 0.0002246 | 0.05212 | –
288.15 K, x1 = 0.0002357 | 0.05319 | –
288.15 K, x1 = 0.0002468 | 0.05427 | –
288.15 K, x1 = 0.0002602 | 0.05567 | –
288.15 K, x1 = 0.0002748 | 0.05707 | –
288.15 K, x1 = 0.0002912 | 0.05868 | –
293.15 K, x1 = 1.802e-05 | – | 0.968
293.15 K, x1 = 3.604e-05 | – | 0.97
293.15 K, x1 = 5.406e-05 | – | 0.971
293.15 K, x1 = 6.553e-05 | 0.02214 | –
293.15 K, x1 = 6.973e-05 | 0.02364 | –
293.15 K, x1 = 7.207e-05 | – | 0.974
293.15 K, x1 = 7.508e-05 | 0.02545 | –
293.15 K, x1 = 8.157e-05 | 0.02759 | –
293.15 K, x1 = 8.883e-05 | 0.03004 | –
293.15 K, x1 = 9.009e-05 | – | 0.978
293.15 K, x1 = 9.76e-05 | 0.03303 | –
293.15 K, x1 = 0.000103 | 0.03463 | –
293.15 K, x1 = 0.0001081 | – | 0.981
293.15 K, x1 = 0.0001091 | 0.03666 | –
293.15 K, x1 = 0.0001152 | 0.03858 | –
293.15 K, x1 = 0.0001228 | 0.04104 | –
293.15 K, x1 = 0.0001261 | – | 0.984
293.15 K, x1 = 0.0001312 | 0.04371 | –
293.15 K, x1 = 0.0001408 | 0.0468 | –
293.15 K, x1 = 0.0001441 | – | 0.986
293.15 K, x1 = 0.0001522 | 0.04969 | –
293.15 K, x1 = 0.0001622 | – | 0.988
293.15 K, x1 = 0.0001649 | 0.05162 | –
293.15 K, x1 = 0.0001802 | – | 0.989
293.15 K, x1 = 0.0001805 | 0.05366 | –
293.15 K, x1 = 0.0001982 | – | 0.992
293.15 K, x1 = 0.0001989 | 0.05581 | –
293.15 K, x1 = 0.0002162 | – | 0.993
293.15 K, x1 = 0.0002219 | 0.0586 | –
293.15 K, x1 = 0.0002326 | 0.05979 | –
293.15 K, x1 = 0.0002342 | – | 0.993
293.15 K, x1 = 0.0002441 | 0.06118 | –
293.15 K, x1 = 0.0002522 | – | 0.995
293.15 K, x1 = 0.0002575 | 0.06269 | –
293.15 K, x1 = 0.0002702 | – | 0.996
293.15 K, x1 = 0.000272 | 0.06419 | –
293.15 K, x1 = 0.0002889 | 0.06613 | –
298.15 K, x1 = 1.802e-05 | – | 0.853
298.15 K, x1 = 3.604e-05 | – | 0.854
298.15 K, x1 = 5.406e-05 | – | 0.855
298.15 K, x1 = 6.168e-05 | 0.02352 | –
298.15 K, x1 = 6.588e-05 | 0.02512 | –
298.15 K, x1 = 7.207e-05 | – | 0.856
298.15 K, x1 = 7.696e-05 | 0.02928 | –
298.15 K, x1 = 8.42e-05 | 0.03184 | –
298.15 K, x1 = 9.009e-05 | – | 0.857
298.15 K, x1 = 9.222e-05 | 0.03505 | –
298.15 K, x1 = 9.755e-05 | 0.03686 | –
298.15 K, x1 = 0.0001029 | 0.03889 | –
298.15 K, x1 = 0.0001081 | – | 0.857
298.15 K, x1 = 0.0001261 | – | 0.858
298.15 K, x1 = 0.0001441 | – | 0.86
298.15 K, x1 = 0.0001622 | – | 0.862
298.15 K, x1 = 0.0001802 | – | 0.863
298.15 K, x1 = 0.0001982 | – | 0.864
298.15 K, x1 = 0.0002162 | – | 0.865
298.15 K, x1 = 0.0002342 | – | 0.866
298.15 K, x1 = 0.0002522 | – | 0.866
298.15 K, x1 = 0.0002702 | – | 0.867
303.15 K, x1 = 1.802e-05 | – | 0.764
303.15 K, x1 = 3.604e-05 | – | 0.766
303.15 K, x1 = 5.406e-05 | – | 0.767
303.15 K, x1 = 7.207e-05 | – | 0.768
303.15 K, x1 = 9.009e-05 | – | 0.769
303.15 K, x1 = 0.0001081 | – | 0.77
303.15 K, x1 = 0.0001261 | – | 0.772
303.15 K, x1 = 0.0001441 | – | 0.773
303.15 K, x1 = 0.0001622 | – | 0.774
303.15 K, x1 = 0.0001802 | – | 0.775
303.15 K, x1 = 0.0001982 | – | 0.776
303.15 K, x1 = 0.0002162 | – | 0.776
303.15 K, x1 = 0.0002342 | – | 0.777
303.15 K, x1 = 0.0002522 | – | 0.778
303.15 K, x1 = 0.0002702 | – | 0.779
308.15 K, x1 = 1.802e-05 | – | 0.69
308.15 K, x1 = 3.604e-05 | – | 0.691
308.15 K, x1 = 5.406e-05 | – | 0.691
308.15 K, x1 = 7.207e-05 | – | 0.692
308.15 K, x1 = 9.009e-05 | – | 0.694
308.15 K, x1 = 0.0001081 | – | 0.695
308.15 K, x1 = 0.0001261 | – | 0.696
308.15 K, x1 = 0.0001441 | – | 0.698
308.15 K, x1 = 0.0001622 | – | 0.7
308.15 K, x1 = 0.0001802 | – | 0.701
308.15 K, x1 = 0.0001982 | – | 0.702
308.15 K, x1 = 0.0002162 | – | 0.702
308.15 K, x1 = 0.0002342 | – | 0.704
308.15 K, x1 = 0.0002522 | – | 0.704
308.15 K, x1 = 0.0002702 | – | 0.705
313.15 K, x1 = 1.802e-05 | – | 0.599
313.15 K, x1 = 3.604e-05 | – | 0.6
313.15 K, x1 = 5.406e-05 | – | 0.601
313.15 K, x1 = 7.207e-05 | – | 0.601
313.15 K, x1 = 9.009e-05 | – | 0.602
313.15 K, x1 = 0.0001081 | – | 0.603
313.15 K, x1 = 0.0001261 | – | 0.604
313.15 K, x1 = 0.0001441 | – | 0.605
313.15 K, x1 = 0.0001622 | – | 0.605
313.15 K, x1 = 0.0001802 | – | 0.606
313.15 K, x1 = 0.0001982 | – | 0.607
313.15 K, x1 = 0.0002162 | – | 0.608
313.15 K, x1 = 0.0002342 | – | 0.609
313.15 K, x1 = 0.0002522 | – | 0.609
313.15 K, x1 = 0.0002702 | – | 0.61
318.15 K, x1 = 1.802e-05 | – | 0.567
318.15 K, x1 = 3.604e-05 | – | 0.568
318.15 K, x1 = 5.406e-05 | – | 0.57
318.15 K, x1 = 7.207e-05 | – | 0.57
318.15 K, x1 = 9.009e-05 | – | 0.571
318.15 K, x1 = 0.0001081 | – | 0.571
318.15 K, x1 = 0.0001261 | – | 0.572
318.15 K, x1 = 0.0001441 | – | 0.573
318.15 K, x1 = 0.0001622 | – | 0.574
318.15 K, x1 = 0.0001802 | – | 0.575
318.15 K, x1 = 0.0001982 | – | 0.576
318.15 K, x1 = 0.0002162 | – | 0.576
318.15 K, x1 = 0.0002342 | – | 0.577
318.15 K, x1 = 0.0002522 | – | 0.577
318.15 K, x1 = 0.0002702 | – | 0.578

298.15 K, frequency 0.001 MHz
Conditions | electrical conductivity [S/m]
x1 = 1.029e-05 | 0.00434
x1 = 2.57e-05 | 0.0104
x1 = 3.699e-05 | 0.0155
x1 = 5.034e-05 | 0.0213
x1 = 6.37e-05 | 0.0264
x1 = 7.295e-05 | 0.0301
x1 = 8.321e-05 | 0.0349
x1 = 9.348e-05 | 0.0392
x1 = 0.0001038 | 0.0422
x1 = 0.000113 | 0.0461
x1 = 0.0001212 | 0.051
x1 = 0.0001315 | 0.054
x1 = 0.0001418 | 0.0567
x1 = 0.00015 | 0.0607
x1 = 0.0001582 | 0.0631
x1 = 0.0001665 | 0.0649
x1 = 0.000183 | 0.0673
x1 = 0.0001944 | 0.0683
x1 = 0.0002036 | 0.0701
x1 = 0.000214 | 0.0713
x1 = 0.0002222 | 0.0737
x1 = 0.0002315 | 0.075
x1 = 0.0002408 | 0.0771
x1 = 0.0002521 | 0.0792
x1 = 0.0002625 | 0.0801
x1 = 0.0002738 | 0.0823
x1 = 0.0002862 | 0.0841
